# Paper PMC5218480 (PLoS ONE, 2017)
# Tested on: MV-4-11 cells
# Test: Gene expression microarray analysis (Affymetrix PrimeView) and GSEA
# Assay type: cell-based, human
# Design: RFU PODN (11730768_x_at) / Fold change /veh PODN (11730768_x_at) / RFU LINC00158 (11744669_a_at) / Fold change /veh LINC00158 (11744669_a_at) / RFU DUSP10 (11751237_a_at) / Fold change /veh DUSP10 (11751237_a_at) / RFU ID3 (11757404_x_at) / Fold change /veh ID3 (11757404_x_at) / RFU PLEKHG5 (11737974_s_at) / Fold change /veh PLEKHG5 (11737974_s_at) / RFU LRRC4B (11730491_at) / Fold change /veh LRRC4B (11730491_at) / RFU GIMAP4 (11747438_a_at) / Fold change /veh GIMAP4 (11747438_a_at) / RFU KRT8 (11758183_x_at) / Fold change /veh KRT8 (11758183_x_at) / RFU CNN1 (11734310_a_at) / Fold change /veh CNN1 (11734310_a_at) / RFU VPS37D (11726825_at) / Fold change /veh VPS37D (11726825_at) / RFU C10orf10 (11716522_x_at) / Fold change /veh C10orf10 (11716522_x_at) / RFU KIR2DL2 /// KIR2DL4 /// KIR2DL5A /// KIR2DL5B /// KIR2DS1 /// KIR2DS2 /// KIR2DS3 /// KIR2DS4 /// KIR3DL3 /// KIR3DL3 /// KIR3DS1 (11738374_at) / Fold change /veh KIR2DL2 /// KIR2DL4 /// KIR2DL5A /// KIR2DL5B /// KIR2DS1 /// KIR2DS2 /// KIR2DS3 /// KIR2DS4 /// KIR3DL3 /// KIR3DL3 /// KIR3DS1 (11738374_at) / RFU C1QL1 (11718748_at) / Fold change /veh C1QL1 (11718748_at) / RFU TMPRSS4 (11747572_a_at) / Fold change /veh TMPRSS4 (11747572_a_at) / RFU HAMP (11756126_x_at) / Fold change /veh HAMP (11756126_x_at) / RFU RNFT2 (11725882_a_at) / Fold change /veh RNFT2 (11725882_a_at) / RFU NR4A2 (11747474_a_at) / Fold change /veh NR4A2 (11747474_a_at) / RFU ABCC12 (11746883_a_at) / Fold change /veh ABCC12 (11746883_a_at) / RFU TMEM136 (11760407_x_at) / Fold change /veh TMEM136 (11760407_x_at) / RFU CLDN22 /// WWC2 (11732394_at) / Fold change /veh CLDN22 /// WWC2 (11732394_at) / RFU HLA-DPB1 (11760878_x_at) / Fold change /veh HLA-DPB1 (11760878_x_at) / RFU SPINT1 (11716480_a_at) / Fold change /veh SPINT1 (11716480_a_at) / RFU GAP43 (11754022_s_at) / Fold change /veh GAP43 (11754022_s_at) / RFU A4GNT (11735810_at) / Fold change /veh A4GNT (11735810_at) / RFU PRB3 (11715151_x_at) / Fold change /veh PRB3 (11715151_x_at) / RFU TUBB4B (11761932_at) / Fold change /veh TUBB4B (11761932_at) / RFU CAPN14 (11732068_a_at) / Fold change /veh CAPN14 (11732068_a_at) / RFU TMCC2 (11721928_a_at) / Fold change /veh TMCC2 (11721928_a_at) / RFU IRGQ (11745062_a_at) / Fold change /veh IRGQ (11745062_a_at) / RFU FAM174B (11720279_a_at) / Fold change /veh FAM174B (11720279_a_at) / RFU TMPRSS4 (11748680_a_at) / Fold change /veh TMPRSS4 (11748680_a_at) / RFU FAM212B (11763350_a_at) / Fold change /veh FAM212B (11763350_a_at) / RFU PLEKHG5 (11743358_a_at) / Fold change /veh PLEKHG5 (11743358_a_at) / RFU ZSCAN30 (11745921_a_at) / Fold change /veh ZSCAN30 (11745921_a_at) / RFU CMKLR1 (11741424_a_at) / Fold change /veh CMKLR1 (11741424_a_at) / RFU LOC101060620 /// MAPK8IP1 (11723275_at) / Fold change /veh LOC101060620 /// MAPK8IP1 (11723275_at) / RFU SPTSSB (11747773_x_at) / Fold change /veh SPTSSB (11747773_x_at) / RFU PRSS12 (11739890_at) / Fold change /veh PRSS12 (11739890_at) / RFU BIN1 (11741810_x_at) / Fold change /veh BIN1 (11741810_x_at) / RFU WNT11 (11732464_a_at) / Fold change /veh WNT11 (11732464_a_at) / RFU C10orf10 (11716521_a_at) / Fold change /veh C10orf10 (11716521_a_at) / RFU C5orf56 (11738089_at) / Fold change /veh C5orf56 (11738089_at) / RFU CYB561 (11721691_x_at) / Fold change /veh CYB561 (11721691_x_at) / RFU ANKRD19P (11752326_a_at) / Fold change /veh ANKRD19P (11752326_a_at) / RFU OR2T12 /// OR2T33 /// OR2T8 (11738714_s_at) / Fold change /veh OR2T12 /// OR2T33 /// OR2T8 (11738714_s_at) / RFU VCAN (11748164_a_at) / Fold change /veh VCAN (11748164_a_at) / RFU JSRP1 (11732532_at) / Fold change /veh JSRP1 (11732532_at) / RFU KRTAP10-11 (11738290_x_at) / Fold change /veh KRTAP10-11 (11738290_x_at) / RFU MYO3A (11730013_a_at) / Fold change /veh MYO3A (11730013_a_at) / RFU EBF3 (11725865_a_at) / Fold change /veh EBF3 (11725865_a_at) / RFU CAMK2N1 (11719241_x_at) / Fold change /veh CAMK2N1 (11719241_x_at) / RFU C5orf56 (11738088_a_at) / Fold change /veh C5orf56 (11738088_a_at) / RFU OLFML3 (11715873_a_at) / Fold change /veh OLFML3 (11715873_a_at) / RFU LOC100653217 /// NTM (11731650_a_at) / Fold change /veh LOC100653217 /// NTM (11731650_a_at) / RFU MAPK11 (11762145_a_at) / Fold change /veh MAPK11 (11762145_a_at) / RFU FIZ1 (11724087_x_at) / Fold change /veh FIZ1 (11724087_x_at) / RFU OASL (11726364_x_at) / Fold change /veh OASL (11726364_x_at) / RFU SOX15 (11748057_x_at) / Fold change /veh SOX15 (11748057_x_at) / RFU CD79A (11719716_a_at) / Fold change /veh CD79A (11719716_a_at) / RFU HIST1H1D (11736915_at) / Fold change /veh HIST1H1D (11736915_at) / RFU CASKIN2 (11723855_a_at) / Fold change /veh CASKIN2 (11723855_a_at) / RFU LOC730098 (11760151_x_at) / Fold change /veh LOC730098 (11760151_x_at) / RFU OR4N2 (11742367_at) / Fold change /veh OR4N2 (11742367_at) / RFU PRRT2 (11749266_a_at) / Fold change /veh PRRT2 (11749266_a_at) / RFU SNX32 (11753110_a_at) / Fold change /veh SNX32 (11753110_a_at) / RFU CDHR5 (11726645_a_at) / Fold change /veh CDHR5 (11726645_a_at) / RFU RCAN1 (11760418_a_at) / Fold change /veh RCAN1 (11760418_a_at) / RFU FAM167A (11723789_a_at) / Fold change /veh FAM167A (11723789_a_at) / RFU FAM26E (11764081_at) / Fold change /veh FAM26E (11764081_at) / RFU ISYNA1 (11749810_s_at) / Fold change /veh ISYNA1 (11749810_s_at) / RFU ACY1 (11761880_at) / Fold change /veh ACY1 (11761880_at) / RFU 11764098_at / Fold change /veh 11764098_at / RFU SAMD14 (11745864_x_at) / Fold change /veh SAMD14 (11745864_x_at) / RFU NPB (11741838_a_at) / Fold change /veh NPB (11741838_a_at) / RFU TMPRSS6 (11731388_a_at) / Fold change /veh TMPRSS6 (11731388_a_at) / RFU KRTAP10-2 (11738614_at) / Fold change /veh KRTAP10-2 (11738614_at) / RFU ARHGAP8 /// PRR5-ARHGAP8 (11727945_x_at) / Fold change /veh ARHGAP8 /// PRR5-ARHGAP8 (11727945_x_at) / RFU KRTAP5-7 /// NADSYN1 (11734609_at) / Fold change /veh KRTAP5-7 /// NADSYN1 (11734609_at) / RFU RASL12 (11751679_a_at) / Fold change /veh RASL12 (11751679_a_at) / RFU CDKN2B (11736163_a_at) / Fold change /veh CDKN2B (11736163_a_at) / RFU PRF1 (11729649_at) / Fold change /veh PRF1 (11729649_at) / RFU, ZNF638 /// ZNF638-IT1 / Fold change vs veh, ZNF638 /// ZNF638-IT1 / RFU, PANK3 / Fold change vs veh, PANK3 / RFU, SH3YL1 / Fold change vs veh, SH3YL1 / RFU, ZEB2 / Fold change vs veh, ZEB2 / RFU, NRIP1 / Fold change vs veh, NRIP1 / RFU, PTTG1IP / Fold change vs veh, PTTG1IP / RFU, CAPN2 / Fold change vs veh, CAPN2 / RFU, MED14 / Fold change vs veh, MED14 / RFU, SNORA58 / Fold change vs veh, SNORA58 / RFU, C1orf63 / Fold change vs veh, C1orf63 / RFU, LRRFIP1 / Fold change vs veh, LRRFIP1 / RFU, NDUFAF7 / Fold change vs veh, NDUFAF7 / RFU, SLC12A2 / Fold change vs veh, SLC12A2 / RFU, IBTK / Fold change vs veh, IBTK / RFU, ESF1 / Fold change vs veh, ESF1 / Fold change vs veh, TMEM50B / RFU, TAOK1 / Fold change vs veh, TAOK1 / RFU, ACBD3 / Fold change vs veh, ACBD3 / RFU, TMA16 / Fold change vs veh, TMA16 / RFU, RWDD3 / Fold change vs veh, RWDD3 / RFU, BCAT1 / Fold change vs veh, BCAT1 / RFU, EDEM3 / Fold change vs veh, EDEM3 / RFU, TMEM33 / Fold change vs veh, TMEM33 / RFU, WDR75 / Fold change vs veh, WDR75 / RFU, AHCTF1 / Fold change vs veh, AHCTF1 / RFU, TFRC / Fold change vs veh, TFRC / RFU, ZDHHC17 / Fold change vs veh, ZDHHC17 / RFU, NOM1 / Fold change vs veh, NOM1 / RFU, ARL8B / Fold change vs veh, ARL8B / RFU, ZBTB11 / Fold change vs veh, ZBTB11 / RFU, TAMM41 / Fold change vs veh, TAMM41 / RFU, KIAA1704 /// LOC100996395 / Fold change vs veh, KIAA1704 /// LOC100996395 / RFU, ING1 / Fold change vs veh, ING1 / RFU, TRMT61B / Fold change vs veh, TRMT61B / RFU, FUBP3 / Fold change vs veh, FUBP3 / RFU, TP53 / Fold change vs veh, TP53 / RFU, TNKS2 / Fold change vs veh, TNKS2 / RFU, ZFP14 / Fold change vs veh, ZFP14 / RFU, ACTR2 / Fold change vs veh, ACTR2 / RFU, PPP3R1 / Fold change vs veh, PPP3R1 / RFU, PIK3R1 / Fold change vs veh, PIK3R1 / RFU, HNRNPA1 / Fold change vs veh, HNRNPA1 / RFU, RNF170 / Fold change vs veh, RNF170 / RFU, ZNF28 / Fold change vs veh, ZNF28 / RFU, RNGTT / Fold change vs veh, RNGTT / RFU, OGT / Fold change vs veh, OGT / RFU, BRD1 / Fold change vs veh, BRD1 / RFU, MARS / Fold change vs veh, MARS / RFU, ZNF655 / Fold change vs veh, ZNF655 / RFU, FAHD1 / Fold change vs veh, FAHD1 / RFU, BDP1 / Fold change vs veh, BDP1 / RFU, LRRCC1 / Fold change vs veh, LRRCC1 / RFU, ARID1A / Fold change vs veh, ARID1A / RFU, ZNF146 / Fold change vs veh, ZNF146 / RFU, ZNF330 / Fold change vs veh, ZNF330 / RFU, GPN3 / Fold change vs veh, GPN3 / RFU, C9orf123 / Fold change vs veh, C9orf123 / RFU, N4BP2L2 / Fold change vs veh, N4BP2L2 / RFU, ARFIP1 / Fold change vs veh, ARFIP1 / RFU, FAM179B / Fold change vs veh, FAM179B / RFU, BCL10 / Fold change vs veh, BCL10 / RFU, UHRF1BP1L / Fold change vs veh, UHRF1BP1L / RFU, BET1 / Fold change vs veh, BET1 / RFU, CNOT2 / Fold change vs veh, CNOT2 / RFU, ZNF268 / Fold change vs veh, ZNF268 / Fold change vs veh, ZNF507 / RFU, DGCR2 / Fold change vs veh, DGCR2 / RFU, WDSUB1 / Fold change vs veh, WDSUB1 / Fold change vs veh, HSP90B1 /// MIR3652 / RFU, ADSS / Fold change vs veh, ADSS / RFU, GK / Fold change vs veh, GK / RFU, ZNF148 / Fold change vs veh, ZNF148 / RFU, TAF9 / Fold change vs veh, TAF9 / RFU, SLC1A5 / Fold change vs veh, SLC1A5 / RFU, SLMO2 / Fold change vs veh, SLMO2 / RFU, ABCC4 / Fold change vs veh, ABCC4 / RFU, LOC101060439 /// RAP1B / Fold change vs veh, LOC101060439 /// RAP1B / RFU, RFX7 / Fold change vs veh, RFX7 / RFU, GTPBP10 / Fold change vs veh, GTPBP10 / RFU, CNEP1R1 / Fold change vs veh, CNEP1R1 / RFU, BIVM-ERCC5 /// ERCC5 / Fold change vs veh, BIVM-ERCC5 /// ERCC5 / RFU, ILF3 / Fold change vs veh, ILF3 / RFU 11762660_at / Fold change /veh 11762660_at / RFU VCAN (11757783_s_at) / Fold change /veh VCAN (11757783_s_at) / RFU DDX43 (11728927_at) / Fold change /veh DDX43 (11728927_at) / RFU KRT8 (11758188_x_at) / Fold change /veh KRT8 (11758188_x_at) / RFU NKD1 (11759106_at) / Fold change /veh NKD1 (11759106_at) / RFU SRD5A1 (11742802_a_at) / Fold change /veh SRD5A1 (11742802_a_at) / RFU TPSAB1 /// TPSB2 (11721975_s_at) / Fold change /veh TPSAB1 /// TPSB2 (11721975_s_at) / RFU GSTM3 (11746129_a_at) / Fold change /veh GSTM3 (11746129_a_at) / RFU IL23R (11737362_x_at) / Fold change /veh IL23R (11737362_x_at) / RFU TMEM51 (11727254_a_at) / Fold change /veh TMEM51 (11727254_a_at) / RFU PIWIL2 (11732686_x_at) / Fold change /veh PIWIL2 (11732686_x_at) / RFU ORM1 (11744905_x_at) / Fold change /veh ORM1 (11744905_x_at) / RFU CCDC152 (11743942_at) / Fold change /veh CCDC152 (11743942_at) / RFU ECM1 (11717891_a_at) / Fold change /veh ECM1 (11717891_a_at) / RFU IL23R (11748794_a_at) / Fold change /veh IL23R (11748794_a_at) / RFU TNFAIP8L3 (11732012_x_at) / Fold change /veh TNFAIP8L3 (11732012_x_at) / RFU MBOAT4 (11741988_at) / Fold change /veh MBOAT4 (11741988_at) / RFU 11764193_at / Fold change /veh 11764193_at / RFU TMEM53 (11763286_at) / Fold change /veh TMEM53 (11763286_at) / RFU MAGEB2 (11727129_at) / Fold change /veh MAGEB2 (11727129_at) / RFU TMEM200A (11744735_a_at) / Fold change /veh TMEM200A (11744735_a_at) / RFU CCDC152 (11751479_a_at) / Fold change /veh CCDC152 (11751479_a_at) / RFU FAM211A (11726209_a_at) / Fold change /veh FAM211A (11726209_a_at) / RFU RGS16 (11746705_a_at) / Fold change /veh RGS16 (11746705_a_at) / RFU VCAN (11755009_s_at) / Fold change /veh VCAN (11755009_s_at) / RFU RHOB (11743442_s_at) / Fold change /veh RHOB (11743442_s_at) / RFU RGS16 (11720943_a_at) / Fold change /veh RGS16 (11720943_a_at) / RFU RGS16 (11720944_at) / Fold change /veh RGS16 (11720944_at) / RFU, VPS4B / Fold change vs veh, VPS4B / RFU, CREB1 / Fold change vs veh, CREB1 / RFU, DNAJC13 / Fold change vs veh, DNAJC13 / RFU, GNAQ / Fold change vs veh, GNAQ / RFU, CDK5R1 / Fold change vs veh, CDK5R1 / RFU, ZRANB3 / Fold change vs veh, ZRANB3 / RFU, CUL4A / Fold change vs veh, CUL4A / RFU, CCNY / Fold change vs veh, CCNY / RFU, UFL1 / Fold change vs veh, UFL1 / RFU, COG3 / Fold change vs veh, COG3 / RFU, DIAPH2 / Fold change vs veh, DIAPH2 / RFU, SKA2 / Fold change vs veh, SKA2 / RFU, AFF3 / Fold change vs veh, AFF3 / RFU, LMF1 / Fold change vs veh, LMF1 / RFU, IPO11 / Fold change vs veh, IPO11 / RFU, DFFB / Fold change vs veh, DFFB / RFU, FOXP1 / Fold change vs veh, FOXP1 / RFU, CARD8 / Fold change vs veh, CARD8 / RFU, STRN3 / Fold change vs veh, STRN3 / RFU, ADK / Fold change vs veh, ADK / RFU, RASSF2 / Fold change vs veh, RASSF2 / RFU, WIPF1 / Fold change vs veh, WIPF1 / RFU, LARP1B / Fold change vs veh, LARP1B / RFU, RASA1 / Fold change vs veh, RASA1 / RFU, RB1 / Fold change vs veh, RB1 / RFU, PPFIA1 / Fold change vs veh, PPFIA1 / RFU, MAT2A / Fold change vs veh, MAT2A / RFU, CCT5 / Fold change vs veh, CCT5 / RFU, WDR92 / Fold change vs veh, WDR92 / RFU, CUX1 / Fold change vs veh, CUX1 / RFU, TTC7A / Fold change vs veh, TTC7A / RFU, TMEM135 / Fold change vs veh, TMEM135 / RFU, DEPTOR / Fold change vs veh, DEPTOR / RFU, CPM / Fold change vs veh, CPM / RFU, DNAJB6 / Fold change vs veh, DNAJB6 / RFU, CACNA2D3 / Fold change vs veh, CACNA2D3 / RFU, DTX4 / Fold change vs veh, DTX4 / RFU, TFCP2 / Fold change vs veh, TFCP2 / RFU, GMCL1 /// GMCL1P1 / Fold change vs veh, GMCL1 /// GMCL1P1 / RFU, AEBP2 / Fold change vs veh, AEBP2 / RFU, SNHG1 /// SNORD22 /// SNORD25 /// SNORD26 /// SNORD27 /// SNORD28 /// SNORD29 /// SNORD31 / Fold change vs veh, SNHG1 /// SNORD22 /// SNORD25 /// SNORD26 /// SNORD27 /// SNORD28 /// SNORD29 /// SNORD31 / Fold change (Aza/veh), C12orf56 (ProbeSet 11735607_a_at) / Fold change (ACY-1035/veh), C12orf56 (ProbeSet 11735607_a_at) / Fold change (Aza/veh), FGFR1OP (ProbeSet 11751329_s_at) / Fold change (ACY-1035/veh), FGFR1OP (ProbeSet 11751329_s_at) / Fold change (Aza/veh), VPS36 (ProbeSet 11739960_a_at) / Fold change (ACY-1035/veh), VPS36 (ProbeSet 11739960_a_at) / RFU SYPL1 (11715823_x_at) / Fold change /veh SYPL1 (11715823_x_at) / RFU IGFBP7 (11715501_s_at) / Fold change /veh IGFBP7 (11715501_s_at) / RFU REEP3 (11722064_at) / Fold change /veh REEP3 (11722064_at) / RFU IGLL1 (11728026_x_at) / Fold change /veh IGLL1 (11728026_x_at): dose or concentration left out as unconfirmed
# Settings: ProbeSet 11759094_a_at; LIST D
structure (smiles),measurement,value
Nc1ccc(-c2cccs2)cc1NC(=O)c1ccc2c(c1)cc(C1CC1)n2CCN1CCOCC1 [ACY-1035],"RFU, GNAQ",492.28 RFU
